Converted amounts (≈) assume the structure as drawn.
Assays:
[1] = Cytotoxicity against HEK293T cells assessed as cell growth inhibition at 50 ug/mL after 72 hrs by MTT assay; assay type: cell-based, HEK-293T; conditions: human, read-out: GI
[2] = system: Mycobacterium tuberculosis; test: Antimycobacterial activity against Mycobacterium tuberculosis H37Rv ATCC 27294 after 28 days by agar dilution method; assay type: functional; conditions: H37Rv ATCC 27294, 672 h

Row | SMILES | inhibition at 72 h, 50 ug/mL [1] | MIC ([2]; read-out: MIC) | MIC50 [2] | MIC ([2]; read-out: MIC100)
1 | COc1ccc(CNC(=O)c2c(-c3ccc4sc5ccccc5c4c3)nc3ccccn23)cc1 | 37% | 6.25 µg/mL |  | 
2 | Cc1nc2ccccn2c1C(=O)NCc1ccccc1 |  |  | 1.86 µM (≈ 0.493 µg/mL) | 
3 | O=C(NCc1ccccc1)c1c(-c2ccc3sc4ccccc4c3c2)nc2ccccn12 | 34.6% | 3.13 µg/mL |  | 7.21 µM
4 | O=C(NCc1ccc(N2CCN(Cc3ccccc3)CC2)cc1)c1c(-c2ccc3sc4ccccc4c3c2)nc2ccccn12 |  | 25 µg/mL |  | 
5 | CCc1nc2ccccn2c1C(=O)NCc1ccc(Oc2ccc(OC(F)(F)F)cc2)cc1 |  |  | 0.013 µM (≈ 0.00592 µg/mL) | 
6 | O=C(NCc1ccc(Oc2ccc(OC(F)(F)F)cc2)cc1)c1c(-c2ccc3sc4ccccc4c3c2)nc2ccccn12 |  | 12.5 µg/mL |  | 
7 | O=C(NCc1ccc(F)cc1)c1c(-c2ccc3sc4ccccc4c3c2)nc2ccccn12 | 25.8% | 3.13 µg/mL |  | 
8 | CC(C)(C)c1ccc(CNC(=O)c2c(-c3ccc4sc5ccccc5c4c3)nc3ccccn23)cc1 | 18.8% | 1.56 µg/mL |  | 3.22 µM
9 | O=C(NCc1ccc(OC(F)(F)F)cc1)c1c(-c2ccc3sc4ccccc4c3c2)nc2ccccn12 |  | 25 µg/mL |  | 
10 | O=C(NCc1ccc(N2CCN(c3ccc(Cl)cc3)CC2)cc1)c1c(-c2ccc3sc4ccccc4c3c2)nc2ccccn12 | 24.4% | 1.56 µg/mL |  | 2.5 µM
11 | O=C(NCc1ccc(Oc2ccc(F)cc2)cc1)c1c(-c2ccc3sc4ccccc4c3c2)nc2ccccn12 |  | 25 µg/mL |  | 
12 | O=C(NCc1ccc(N2CCSCC2)cc1)c1c(-c2ccc3sc4ccccc4c3c2)nc2ccccn12 |  | 25 µg/mL |  | 
13 | CC[C@@H](CO)NCCN[C@@H](CC)CO [ETHAMBUTOL] |  | 3.13 µg/mL |  | 
14 | O=C(NCc1ccc(Oc2ccccc2)cc1)c1c(-c2ccc3sc4ccccc4c3c2)nc2ccccn12 | 38.4% | 6.25 µg/mL |  | 
15 | O=C(NCc1ccc(N2CCOCC2)cc1)c1c(-c2ccc3sc4ccccc4c3c2)nc2ccccn12 |  | 25 µg/mL |  | 
16 | O=C(NCc1ccc(N2CCC(Cc3ccccc3)CC2)cc1)c1c(-c2ccc3sc4ccccc4c3c2)nc2ccccn12 | 34.8% | 0.78 µg/mL |  | 1.3 µM
17 | O=C(NCc1ccc(N2CCN(c3ccccc3F)CC2)cc1)c1c(-c2ccc3sc4ccccc4c3c2)nc2ccccn12 |  | 25 µg/mL |  | 
18 | O=C(NCc1ccc(C(F)(F)F)cc1)c1c(-c2ccc3sc4ccccc4c3c2)nc2ccccn12 |  | 12.5 µg/mL |  | 
19 | NC(=O)c1cnccn1 [PYRAZINAMIDE] |  | 50 µg/mL |  | 
20 | O=C(NCc1ccc(Oc2ccc(Cl)cc2)cc1)c1c(-c2ccc3sc4ccccc4c3c2)nc2ccccn12 |  | 25 µg/mL |  | 
21 | O=C(NCc1ccc(Cl)cc1)c1c(-c2ccc3sc4ccccc4c3c2)nc2ccccn12 |  | 25 µg/mL |  | 
22 | NNC(=O)c1ccncc1 [ISONIAZID] |  | 0.1 µg/mL |  | 
23 | COc1ccc(CCNC(=O)c2c(C)nc3ccccn23)cc1 |  |  | 2.63 µM (≈ 0.814 µg/mL) | 
24 | Cc1ccc(CNC(=O)c2c(-c3ccc4sc5ccccc5c4c3)nc3ccccn23)cc1 |  | 12.5 µg/mL |  | 
25 | CC(C)(C)c1ccc(Oc2ccc(CNC(=O)c3c(-c4ccc5sc6ccccc6c5c4)nc4ccccn34)cc2)cc1 |  | 25 µg/mL |  | 

Reference: ChEMBL document CHEMBL3808383, “Synthesis and antitubercular evaluation of novel dibenzo[b,d]thiophene tethered imidazo[1,2-a]pyridine-3-carboxamides” (Bioorg Med Chem Lett, 2016)
